Entries after “also recorded” stand apart in the source; their conditions may differ.
Experiments:
[1] = test system: etoposide-treated apoptotic A549 cells; experiment: FACS analysis of binding to apoptotic cells (Example 9-3); assay type: cell-based, human
Procedure: As another way of confirming the binding of the polypeptide of the present invention (ApoPep-2) to apoptotic cells, apoptotic cells were treated with the peptide, labeled with fluorescein, and the binding was confirmed through FACS analysis. First, apoptosis was induced by treating A549 cells with 50 μM etoposide for 20 hours. The apoptotic cells or normal cells were reacted with ApoPep-2 (10 μM) or a control peptide at the same concentration, labeled with fluorescein, at 4° C. or 37° C. for 1 hour. Further, the cells were reacted with fluorescein-labeled annexin V at room temperature for 15 minutes. After washing cells with PBS, FACS analysis was performed using a FACS instrument (Becton Dickinson).

[2] = test system: etoposide-treated apoptotic A549 cells; experiment: FACS analysis of binding to apoptotic cells (Example 3-3); assay type: cell-based, human
Procedure: As another way of confirming the binding of the peptide of the present invention to apoptotic cells, apoptotic cells were treated with the peptide of the present invention, labeled with fluorescein, and the binding was confirmed through FACS analysis. […] The apoptotic cells or normal cells were reacted with ApoPep-1 (5 μM), ApoPep-2 (10 μM) or a control peptide at the same concentrations, labeled with fluorescein, at 4° C. for 1 hour. Further, the cells were reacted with fluorescein-labeled annexin V at room temperature for 15 minutes. After staining the cells with propodium iodide (PI) simultaneously, followed by washing with PBS, FACS analysis was performed using a FACS instrument (Becton Dickinson).

[3] = test system: apoptotic cells in A549 tumor tissue xenotransplanted under the skin of nude mouse; experiment: Histological analysis of tumor targeting (Example 2); assay type: in vivo; conditions: fluorescein-labeled peptide, tail vein, 50 μM final, 2 hours circulation; cryosections
Procedure: All animal experiments were performed in accordance with the guideline of the Institutional Animal Care and Use Committee. For tumor xenotransplantation, human lung cancer cells (A549, 1×10^7 cells) suspended in RMPI-1640 medium was subcutaneously injected at the right upper or lower limb of a 6-week-old male BALB/c nude mouse (Hyochang Science). Then, 3 weeks were given for the tumor to grow to a size of 0.5 to 1 cm. The A549 cell line used in the experiment was cultured in RMPI-1640 medium containing 10% fetal bovine serum (FBS) in which antibiotics (penicillin and streptomycin) were included. Subculturing was performed every 3 or 4 days.
The peptides used in the present invention were fluorescein-attached form at the N-terminal. They were synthesized according to the standard Fmoc technique and then isolated through HPLC. The peptide synthesis was performed by an expertise company (Peptron).
The peptide of the present invention (ApoPep-1) or a control peptide (amino acid sequence: NSSSVDK), labeled with fluorescein, was injected into the tail vein of a mouse under isoflurane anesthesia, to a final concentration of 50 μM, and 2 hours was given for circulation.
For histological analysis, the mouse was anesthetized and the abdomen was cut open. After sequentially perfusing phosphate-buffered saline (PBS) and 4% paraformaldehyde through the heart, tumor tissues and organs were removed. Each tissue was cryosected and the peptide of the present invention was observed under a fluorescence microscope (Zeiss). Apoptosis in the tumor tissue was confirmed by TUNEL ([…] terminal deoxynucleotidyl transferase-mediated dUTP nick-end labeling) assay according to the instructions of the manufacturer (Chemicon). Fibrinogen staining was performed by immunohistochemistry using anti-fibrinogen antibody (Abcam) and secondary antibody labeled with Alexa 568, a red fluorescent reagent.

[4] = test system: A549 tumor xenotransplanted in nude mice; experiment: In vivo fluorescence imaging of targeting of apoptotic cells in tumor (Example 4-1); parameters: species or system mouse; conditions: +Dox (10 mg/kg, 3 times); fluorescein-labeled peptide 50 μM
Procedure: Nude mice in which tumor was xenotransplanted using A549 cells were prepared as in Example <2-1>. The mice were grouped into a doxorubicin (Sigma) treated group (+Dox) and untreated group (−Dox). The treated group was treated with doxorubicin (10 mg/kg) 3 times, with an interval of 48 hours, a week prior to injection of the peptide. At the tail vein of each mouse, the peptide of the present invention or a control peptide, labeled with fluorescein, was injected at a final concentration of 50 μM, under isoflurane anesthesia. Following the injection, in vivo fluorescence images were obtained every hour, from 1 hour to 6 hours after the injection, using an Optix exPlore instrument (GE Healthcare). The images were standardized using the software provided with the instrument.
Further, when the tumor grew considerably (1 cm or larger in diameter), the peptide of the present invention was injected at the same concentration as above, without doxorubicin treatment, and in vivo fluorescence images were obtained at every given time using an IVIS fluorescence imaging system (Chemipro).

[5] = test system: brain of stroke rat (middle cerebral artery occlusion/reperfusion); experiment: Molecular imaging of stroke (Example 6); assay type: in vivo; conditions: Cy7.5-labeled peptide 50 μM i.v.; one and three hours
Procedure: A stroke model was established by occluding the left middle cerebral artery of a rat for 2 hours, followed by reperfusion. Two hours after the reperfusion, the peptide having an amino sequence represented by SEQ ID NO: 1 (ApoPep-1) and a control peptide, labeled with Cy7.5 NIR fluorescence, was intravenously injected at a final concentration of 50 μM to the stroke rat and a normal rat through the tail vein, under isoflurane anesthesia. One and three hours after the intravenous injection, NIR images of the head portion were obtained. Further, NIR fluorescence images of the brains of the rats of the 3 hour group were obtained.

[6] = test system: A549 tumor xenotransplanted in nude mice; experiment: In vivo fluorescence imaging of targeting of apoptotic cells in tumor (Example 10); parameters: species or system mouse
Procedure: Nude mice in which tumor was xenotransplanted using A549 cells were prepared as in Example <8-1>. The mice were grouped into a doxorubicin (Sigma) treated group (Dox+) and untreated group (Dox−). The treated group was treated with doxorubicin (5 mg/kg) one time, 12 hours prior to injection of the peptide. At the tail vein of each mouse, the polypeptide of the present invention or a control peptide, labeled with fluorescein or Cy7.5 near-infrared fluorescent dye, was injected at a final concentration of 50 μM, under isoflurane anesthesia. Following the injection, in vivo fluorescence images were obtained 0.5 hours and every hour, from 1 hour to 4 hours, after the injection, using an Optix exPlore instrument (ART). The images were standardized using the software provided with the instrument.

[7] = test system: trail-treated apoptotic MDA-MB231 cells; experiment: Microscopic observation of binding of the peptide to apoptotic cells, MDA-MB231 (Example 9-1); assay type: cell-based; conditions: Alexa594-annexin V
Procedure: (§1) Cells were cultured in chamber slide (Nunc) and treated with 50 μM etoposide (Sigma) for 16 hours (A549 cells) or 50 ng/ml trail (R&D Systems) for 16 hours (MDA-MB231 cells) to induce apoptosis. The cells were cultured in RMPI-1640 medium (A549 cells) or DMEM-High (MDA-MB231 cells) containing antibiotics (penicillin and streptomycin) and 10% FBS. All the cells were sub-cultured every 3 or 4 days. The apoptosis-induced apoptotic cells were washed with PBS and blocked with 1% BSA at 37° C. for 30 minutes. Then, the cells were reacted with 10 μM of the peptide labeled with fluorescein, at 4° C. for 1 hour. After washing, the cells were reacted with an annexin V reaction buffer containing Alexa594-labeled annexin V (Invitrogen) at room temperature for 15 minutes. The cells were washed with PBS and then fixed with 4% paraformaldehyde for 5 minutes. After treatment with a mounting solution containing the DAPI nuclear stain, images of the cells were obtained under a fluorescence microscope.

apoptotic A549 cells [8] = experiment: Competitive inhibition of binding to apoptotic cells by annexin V treatment (Example 9-2); assay type: cell-based, human; conditions: pre-treatment at 0, 500 and 1000 μM; high concentration
Procedure: In order to further investigate the binding properties of the polypeptide of the present invention (ApoPep-2) to apoptotic cells, competitive inhibition by annexin V was measured. To this end, first, apoptotic A549 cells were pre-treated with annexin V, not labeled with fluorescence, at concentrations of 0, 500 and 1000 μM. Then, after reacting the cells with fluorescence-labeled annexin V under the same condition as described in Example <9-1>, the binding of the cells was observed under a fluorescence microscope.
Further, apoptotic A549 cells were pre-treated with annexin V, not labeled with fluorescence, at a concentration of 1000 μM. Then, after reacting the cells with fluorescence-labeled peptide under the same condition as described in Example <9-1>, the binding of the cells was observed under a fluorescence microscope.

apoptotic A549 cells [9] = experiment: Competitive inhibition of binding to apoptotic cells by annexin V treatment (Example 3-2); assay type: cell-based, human; conditions: pre-treatment at 0, 200 and 1000 μM; high concentration
Procedure: In order to further investigate the binding properties of the peptide of the present invention (ApoPep-1) to apoptotic cells, competitive inhibition by annexin V was measured. To this end, first, apoptotic A549 cells were pre-treated with annexin V, not labeled with fluorescence, at concentrations of 0, 200 and […]. Then, after reacting the cells with fluorescence-labeled annexin V under the same condition as described in Example <3-1>, the binding of the cells was observed under a fluorescence microscope.
Further, apoptotic A549 cells were pre-treated with annexin V, not labeled with fluorescence, at a concentration of 1000 μM. Then, after reacting the cells with fluorescence-labeled peptide under the same condition as described in Example <3-1>, the binding of the cells was observed under a fluorescence microscope.

[10] = test system: etoposide-treated apoptotic A549 cells; experiment: Microscopic observation of binding of the peptide to apoptotic cells, A549 (Example 9-1); assay type: cell-based, human; conditions: Alexa594-annexin V
Procedure: as §1

[11] = test system: etoposide-treated apoptotic cells (A549, H460, HeLa, L132, RAW); experiment: Microscopic observation of binding of the peptide to apoptotic cells (Example 3-1); assay type: cell-based; conditions: 10 μM fluorescein-labeled peptide 4° C. 1 hour
Procedure: Cells were cultured in chamber slide (Nalgene Nunc) and treated with 50 μM etoposide (Sigma) for a given period of time (A549 and HeLa cells: for 15 hours, H460 cells: 24 hours, L132 cells: 3 hours, RAW cells: 6 hours) to induce apoptosis. The cells were cultured in RMPI-1640 medium (A549 and H460 cells) or DMEM (HeLa, L132 and RAW cells) containing antibiotics (penicillin and streptomycin) and 10% FBS. All the cells were subcultured every 3 or 4 days. The apoptosis-induced apoptotic cells were washed with PBS and blocked with 1% BSA at 37° C. for 30 minutes. Then, the cells were reacted with 10 μM of the peptide labeled with fluorescein, at 4° C. for 1 hour. After washing, the cells were reacted with an annexin V reaction buffer containing Alexa594-labeled annexin V (Molecular Probes), at room temperature for 15 minutes. The cells were washed with PBS and then fixed with 4% paraformaldehyde for 5 minutes. Thereafter, after counterstaining using the nuclear stain 4′,6-diamidino-2-phenylindole (DAPI), followed by treatment with a mounting solution (Molecular Probes), images of the cells were obtained under a fluorescence microscope (Zeiss).

[12] = test system: H460 tumor xenotransplanted in nude mice; experiment: Radionuclide (micro PET) imaging of targeting of apoptotic cells in tumor (Example 4-2); assay type: in vivo, mouse; conditions: 1 hour after injection
Procedure: Nude mice in which tumor was xenotransplanted using H460 cells were prepared as in Example <2-1>. The mice were grouped into a doxorubicin (Sigma) treated group and untreated group. The treated group was treated with doxorubicin (10 mg/kg) 3 times, with an interval of 48 hours, a week prior to injection of the peptide. The peptide of the present invention (ApoPep-1), labeled with the radioactive isotope ^124I, was injected through the tail vein of each mouse under isoflurane anesthesia (treated group: 91 μCi; untreated group: 93 μCi). Further, ^18F-labeled FDG, which is frequently used for PET, was injected to the doxorubicin treated group and untreated group, at 300 μCi and 304 μCi, respectively. Radionuclide images were obtained using a micro PET instrument (Concorde MicroSystems) 5 hours after the injection of [^124I]ApoPep-1 and 1 hour after the injection of [^18F]FDG.

[13] = etoposide 15 hours, fluorescein-annexin V room temperature 15 minutes, PI

NSSSVDK [control peptide, reference compound]
binding to apoptotic cells (FACS) ([1]; etoposide-treated A549, 10 μM, 4° C. or 37° C.): almost nonexistent or minimal
binding to apoptotic cells (FACS) ([2]; etoposide-treated A549 cells, 4° C. 1 hour): almost nonexistent
peptide fluorescence observed in the tumor tissue [3]: hardly observed
fluorescence signal from the tumor, doxorubicin treated group [4]: weakly detected or almost nonexistent
NIR fluorescence at the head portion of the stroke rat [5]: almost nonexistent
ex vivo fluorescence signal from the kidney ([6]; 4 hours after peptide injection, all the groups, renal clearance): strong
fluorescence signal from the tumor, doxorubicin treated group ([6]; Dox+, Cy7.5-labeled peptide 50 μM): targeting was not observed; also recorded: weakly detected

annexin V: 36 kDa protein that binds to phosphatidylserine; used to detect apoptotic cells [reference compound]
percentage of the cells stained by annexin V ([1]; etoposide 20 hours, fluorescein-annexin V room temperature 15 minutes): 61%
percentage of the cells stained by both annexin V and PI (fraction Q2, later stage of apoptosis) [2, 13]: 9.4%
percentage of the cells stained only by annexin V (fraction Q4, early stage of apoptosis) [2, 13]: 64.3%
labeling of trail-treated apoptotic MDA-MB231 cells ([7]; 50 ng/ml trail 16 hours, 10 μM fluorescein-labeled peptide 4° C. 1 hour): labeling was observed
labeling of MDA-MB231 cells not treated with trail ([7]; 10 μM peptide 4° C. 1 hour): no labeling was observed
fluorescence of labeled annexin V after pre-treatment with unlabeled annexin V (apoptotic A549 cells [8]): decreased significantly
fluorescence of labeled annexin V after pre-treatment with unlabeled annexin V (apoptotic A549 cells [9]): decreased significantly
labeling of A549 cells not treated with etoposide ([10]; 10 μM peptide 4° C. 1 hour): no labeling was observed
labeling of etoposide-treated apoptotic A549 cells ([10]; 50 μM etoposide 16 hours, 10 μM fluorescein-labeled peptide 4° C. 1 hour): labeling was observed
labeling of normal cells not treated with etoposide ([11]; Alexa594-annexin V): no labeling was observed
labeling of etoposide-treated apoptotic cells (fluorescence microscopy) ([11]; 50 μM etoposide, Alexa594-annexin V room temperature 15 minutes): labeling was observed

fluorodeoxyglucose [[^18F]FDG]
PET signal at the tumor site, doxorubicin treated group compared with untreated group [12]: weaker signal

Source: patent US8993721B2, “Peptides for targeting apoptotic cells and uses thereof” (Kyungpook National University Industry-Academic Cooperation …, priority 2008, dated 2015)
